Test results from paper PMC12037037 (Proceedings of the National Academy of Sciences of the …, 2025).

Key:
male C57BL/6J mice = experiment: PCP-induced locomotion (Psychogenics); format: in vivo
Method: IP) can block AMPH-induced hyperlocomotion in female, but not male, mice. (B) Pretreatment with (+)-JRT (1 mg/kg, IP) […]
AMPH = (+)-amphetamine; PCP = phencyclidine; VEH = vehicle; ns = not significant. *p < 0.05, **p < 0.01, ***p < 0.001, ****p < 0.0001, as compared to the comparator(s) indicated by a horizontal bar. See Methods and SI Appendix, Table S1 for full details on statistics.
(1 picture or pasted object on this page, not shown here) […]
PCP-Induced Locomotion. The PCP-induced hyperlocomotion assay was performed by Psychogenics using male C57BL/6J mice that were approximately 8 weeks old at the time of the experiments. The experiment was performed during the animal’s light cycle phase. On the day of testing, animals were acclimated to the experimental room for at least 1 h prior to treatment. Animals were then administered with VEH or JRT (IP, 10 mL/kg) and placed in holding cages for 30 min, after which mice were placed in the open field chambers (27.3 x 27.3 x 30.3; Med Associates Inc., St Albans, VT). Baseline activity was recorded for 30 min. Next, mice received either PCP (5 mg/kg, IP, 10 ml/kg) or VEH and were returned to the open field chambers for a 60 min test session. Locomotion was assessed using consecutive infrared beam breaks. At the end of each session, the chambers were thoroughly cleaned. […]
Reads were aligned to the GRCm39 genome assembly using STAR, processed with Picard, and counted with the Subread software. Transcript inclusion criteria consisted of a minimum raw expression level of 25 transcripts in a minimum of 4 samples. Surrogate variable analysis was conducted with the sva package 2023 release v3.5.0 in R and normalization and differential expression analysis was performed with DESeq2 v4.3 with a baseMean threshold of 10. Heatmaps were created with the pheatmap v1.0.12 with sample-wise z-scores plotted and both row and column grouping allowed using pearson's distances and ward.D for clustering. Gene-wise selection criteria for heatmaps were a baseMean expression threshold of 50 to focus on robustly expressed genes, p value < 0.05, and presence in the top 250 genes sorted by absolute value of log2FC. Additionally, z score was capped at 2 for visualization purposes. Schizophrenia gene sets were extracted from a recent TWAS study (30).
For Figure S8G, the TWAS set was filtered for FDR < 0.01. Permutation testing was conducted to quantify the overlap of top genes from schizophrenia TWAS with the perm_test function from the bulkWarehouse package 2023 release v1.2.7.
Briefly, the intersection of top differentially expressed genes and top TWAS genes is compared to an empirical distribution created by calculating the intersection with our top DEGs when randomly sampling candidate genes from our dataset equal to the size of the TWAS sample. […]

C57BL/6J mice = experiment: Sucrose preference test (SPT) after chronic CORT; format: in vivo; conditions: 1 mg/kg IP, two injections 48 h apart, CORT-sensitive mice; main effect of treatment P = 0.0364
Method: remained housed in groups of three for the remainder of the study. All rats were acclimated to the colony room for up to one week prior to dosing. During the period of acclimation, rats were examined and handled daily, and weighed to assure adequate health and suitability. The room temperature was maintained between 20 °C and 23 °C with a relative humidity of 30%–70%. Lab Rodent Diet 5001 (W.F. Fisher, Cat # 11015) and water were provided ad libitum. Animals were randomly assigned across treatment groups. All testing was performed during the light phase of the light/dark cycle. Behavioral testing was conducted according to established protocols approved by the IACUC committee and PGI Standard Operation Procedures (SOP). […] All animals were carefully monitored to ensure their safety in the swim test and any animal unable to maintain a posture with its nose above water was immediately removed from the water and not used further in the study. […] This test lasted for 5 min and was video recorded. A blinded experimenter manually scored the videos for swimming, climbing, and immobility behavior. Scoring of the forced swim test was performed by trained technicians using a time sampling technique in which the animal in the video recorded test was viewed every 5 seconds and the behavior observed was noted (e.g., immobile, swimming, or climbing). […]

CCN(CC)C(=O)[C@@H]1C=C2c3cccc4ccn(c34)C[C@H]2N(C)C1 [(+)-JRT]
Locomotion, infrared beam breaks (Figure 11B) (male C57BL/6J mice; (+)-JRT (0.1) + PCP 5 mg/kg IP): 30482 ± 2310 | Locomotion, infrared beam breaks (Figure 11B) (male C57BL/6J mice; (+)-JRT (0.3) + PCP 5 mg/kg IP): 26618 ± 2425 | Locomotion, infrared beam breaks (Figure 11B) (male C57BL/6J mice; (+)-JRT (1) + PCP 5 mg/kg IP): 27253 ± 2401 | Effect on CORT-induced anhedonia (sucrose preference) (C57BL/6J mice): rescued CORT-induced anhedonia
